The source of these data is US9765056B2, “Indole and pyrrole compounds, a process for their preparation and pharmaceutical compositions containing them” (LES LABORATOIRES SERVIER, priority 2013, dated 2017).

Structures can show the parent of a compound that is named as a salt.

For orientation: IC50 means the concentration that inhibits the measured activity by half.

Assay [1] has as its target Bcl-2 protein (histag-Bcl-2, UniProtKB P10415) (Homo sapiens (Human), UniProt P10415). The assay can be described thus: Inhibition of Bcl-2 by the fluorescence polarisation technique. In kind it is binding. The note with it: fluorescence polarisation test; method A, or method B where underlined (underlining not visible); read-out: IC50 (nM) Bcl-2 FP. An excerpt:
Inhibition of Bcl-2 by the fluorescence polarisation technique

In assay [2] the test system is RS4;11 leukaemia tumour line. The assay can be described thus: In vitro cytotoxicity, Microculture Tetrazolium Assay (MTT). In kind it is cell-based. Conditions: Homo sapiens; RS4;11 cells, 48 hours exposure. The protocol:
The cytotoxicity studies were carried out on the RS4;11 leukaemia tumour line.
The cells are distributed onto microplates and exposed to the test compounds for 48 hours. The cell viability is then quantified by a colorimetric assay, the Microculture Tetrazolium Assay (Cancer Res., 1987, 47, 939-942).

Sequence of Bcl-2 protein (P10415 whole entry): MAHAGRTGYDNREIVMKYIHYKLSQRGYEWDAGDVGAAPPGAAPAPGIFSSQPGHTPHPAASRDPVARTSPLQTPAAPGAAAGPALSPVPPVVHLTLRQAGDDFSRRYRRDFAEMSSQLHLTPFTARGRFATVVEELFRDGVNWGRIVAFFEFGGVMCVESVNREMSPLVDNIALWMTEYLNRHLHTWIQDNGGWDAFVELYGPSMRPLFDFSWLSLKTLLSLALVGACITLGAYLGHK

`Cc1ccc(N(C(=O)c2cn(-c3cc4c(cc3C(=O)N3Cc5ccccc5C[C@H]3CN3CCN(C)CC3)OCO4)c3ccccc23)c2ccc(O)c(Cl)c2)cc1` [Example 63, N-(3-Chloro-4-hydroxyphenyl)-N-(4-methylphenyl)-1-(6-{[(3S)-3-[(4-methylpiperazin-1-yl)methyl]-3,4-dihydroisoquinolin-2(1H)-yl]carbonyl}-1,3-benzodioxol-5-yl)-1H-indole-3-carboxamide hydrochloride]: the results for the IC50 in assay [1] and in assay [2] were 168 nM and 1510 nM, respectively.
In the same order, the values of `Cc1cc(C(=O)N(c2ccccc2)c2ccc(O)cc2)cn1-c1ccc(Cl)cc1C(=O)N1Cc2ccccc2C[C@H]1CN1CCN(C)CC1` [Example 25, 1-(4-Chloro-2-{[(3S)-3-[(4-methylpiperazin-1-yl)methyl]-3,4-dihydroisoquinolin-2(1H)-yl]carbonyl}phenyl)-N-(4-hydroxyphenyl)-5-methyl-N-phenyl-1H-pyrrole-3-carboxamide] are 87.6 nM and 1100 nM.
In the same order, the values of `Cc1cc(C(=O)N(c2ccc(O)cc2)c2ccc3c(ccn3C)c2)cn1-c1cc(Cl)ccc1C(=O)N1Cc2ccccc2C[C@H]1CN1CCN(C)CC1` [Example 89, 1-(5-Chloro-2-{[(3S)-3-[(4-methylpiperazin-1-yl)methyl]-3,4-dihydroisoquinolin-2(1H)-yl]carbonyl}phenyl)-N-(4-hydroxyphenyl)-5-methyl-N-(1-methyl-1H-indol-5-yl)-1H-pyrrole-3-carboxamide] are 4.2 nM and 59.8 nM.
In the same order, the values of `Cc1cc(C(=O)N(c2ccccc2)c2ccccc2)cn1-c1cc(O)ccc1C(=O)N1Cc2ccccc2C[C@H]1CN` [Example 6, 1-(2-{[(3S)-3-(Aminomethyl)-3,4-dihydroisoquinolin-2(1H)-yl]-carbonyl}-5-hydroxyphenyl)-5-methyl-N,N-diphenyl-1H-pyrrole-3-carboxamide] are 50.5 nM and 915 nM.
Regarding `Cc1cc(C(=O)N(c2ccc(O)cc2)c2ccc3[nH]ccc3c2)cn1-c1cc(Br)ccc1C(=O)N1Cc2ccccc2C[C@H]1CN1CCN(C)CC1` [Example 46, 1-(5-Bromo-2-{[(3S)-3-[(4-methylpiperazin-1-yl)methyl]-3,4-dihydroisoquinolin-2(1H)-yl]carbonyl}phenyl)-N-(4-hydroxyphenyl)-N-(1H-indol-5-yl)-5-methyl-1H-pyrrole-3-carboxamide], the results for the 50% inhibitory concentration (IC50) in assay [1] and in assay [2] were 8.4 nM and 93.4 nM, respectively.
For the molecule `Cc1cc(C(=O)N(c2ccccc2)c2ccc(O)cc2)cn1-c1cc2c(cc1C(=O)N1Cc3ccccc3C[C@H]1CCN1CCOCC1)OCO2` [Example 120, N-(4-Hydroxyphenyl)-5-methyl-1-(6-{[(3S)-3-[2-(morpholin-4-yl)ethyl]-3,4-dihydroisoquinolin-2(1H)-yl]carbonyl}-1,3-benzodioxol-5-yl)-N-phenyl-1H-pyrrole-3-carboxamide hydrochloride], the figures for the concentration for half-maximal inhibition (IC50) in assay [1] and in assay [2] were 15 nM and 367 nM, respectively.
Take `CCCCN(CCCC)C(=O)c1cn(-c2ccc(NC(=O)COc3ccccc3)cc2C(=O)N2Cc3ccccc3C[C@H]2CN2CCN(C)CC2)c2ccccc12` [Example 200, N,N-Dibutyl-1-{2-[(3S)-3-[(4-methylpiperazin-1-yl)methyl]-1,2,3,4-tetrahydroisoquinoline-2-carbonyl]-4-(2-phenoxyacetamido)phenyl}-1H-indole-3-carboxamide]: the 50% inhibitory concentration (IC50) stood at 155 nM in assay [1] and 2080 nM in assay [2].
Consider `Cc1ccc(N(C(=O)c2cn(-c3cc4c(cc3C(=O)N3Cc5ccccc5C[C@H]3CN3CCN(C)CC3)OCO4)c3ccccc23)c2ccc(O)cc2)cc1` [Example 32, N-(4-Hydroxyphenyl)-N-(4-methylphenyl)-1-(6-{[(3S)-3-[(4-methylpiperazin-1-yl)methyl]-3,4-dihydroisoquinolin-2(1H)-yl]carbonyl}-1,3-benzodioxol-5-yl)-1H-indole-3-carboxamide], for which the results for the half-inhibitory concentration (IC50) in assay [1] and in assay [2] were 3.5 nM and 63.7 nM, respectively.
In the same order, the values of `CN1CCN(C[C@@H]2Cc3ccccc3CN2C(=O)c2cc3c(cc2-n2cc(C(=O)N(c4ccccc4)c4ccc(O)cc4)c4ccccc42)OC[C@H](COCc2ccccc2)O3)CC1` [Example 188, 1-[(2S)-2-[(Benzyloxy)methyl]-7-[(3S)-3-[(4-methylpiperazin-1-yl)-methyl]-1,2,3,4-tetrahydroisoquinoline-2-carbonyl]-2,3-dihydro-1,4-benzodioxin-6-yl]-N-(4-hydroxyphenyl)-N-phenyl-1H-indole-3-carboxamide] are 16.8 nM and 68 nM.
In the same order, the values of `Cc1cc(C(=O)N(c2ccc(O)cc2)c2ccc3c(ccn3C)c2)cn1-c1cc2c(cc1C(=O)N1Cc3ccccc3C[C@H]1CN1CCCC1)OCO2` [Example 105, N-(4-Hydroxyphenyl)-5-methyl-N-(1-methyl-1H-indol-5-yl)-1-(6-{[(3S)-3-(pyrrolidin-1-ylmethyl)-3,4-dihydroisoquinolin-2(1H)-yl]carbonyl}-1,3-benzodioxol-5-yl)-1H-pyrrole-3-carboxamide hydrochloride] are 13.6 nM and 202 nM.
In the same order, the values of `CN(C)C[C@@H]1Cc2ccccc2CN1C(=O)c1cc2c(cc1-n1cc(C(=O)N(c3ccccc3)c3ccc(O)cc3)c3ccccc31)OCO2` [Example 180, 1-{6-[(3S)-3-[(Dimethylamino)methyl]-1,2,3,4-tetrahydroisoquinoline-2-carbonyl]-2H-1,3-benzodioxol-5-yl}-N-(4-hydroxyphenyl)-N-phenyl-1H-indole-3-carboxamide hydrochloride] are 11 nM and 210 nM.
On to `NC[C@@H]1Cc2ccccc2CN1C(=O)c1cc(NCc2ccccc2)ccc1-n1nc(C(=O)N(c2ccccc2)c2ccccc2)c2ccccc21` [Example 142, 1-{2-[(3S)-3-(Aminomethyl)-1,2,3,4-tetrahydroisoquinoline-2-carbonyl]-4-(benzylamino)phenyl}-N,N-diphenyl-1H-indazole-3-carboxamide], for which the figures for the IC50 in assay [1] and in assay [2] were 70.6 nM and 2290 nM, respectively.
In the same order, the values of `Cc1cc(C(=O)N(c2ccc(O)cc2)c2ccc3c(ccn3C)c2)cn1-c1cc2occc2cc1C(=O)N1Cc2ccccc2C[C@H]1CN1CCOCC1` [Example 119, N-(4-Hydroxyphenyl)-5-methyl-N-(1-methyl-1H-indol-5-yl)-1-(5-{[(3S)-3-(morpholin-4-ylmethyl)-3,4-dihydroisoquinolin-2(1H)-yl]carbonyl}-1-benzofuran-6-yl)-1H-pyrrole-3-carboxamide hydrochloride] are 28.4 nM and 96.4 nM.
In the same order, the values of `COc1cc(-n2cc(C(=O)N(c3ccc(O)cc3)c3ccc4[nH]ccc4c3)c3ccccc32)c(C(=O)N2Cc3ccccc3C[C@H]2CN2CCN(C)CC2)cc1O` [Example 202, 1-{4-Hydroxy-5-methoxy-2-[(3S)-3-[(4-methylpiperazin-1-yl)methyl]-1,2,3,4-tetrahydroisoquinoline-2-carbonyl]phenyl}-N-(4-hydroxyphenyl)-N-(1H-indol-5-yl)-1H-indole-3-carboxamide] are 4.4 nM and 798 nM.
